Laboratory results reported in BindingDB's records for doi:10.1021/bi00180a024 (Medical University of South Carolina, 1994).

Biological target: T1, 5-hydroxytryptamine receptor 1A (Homo sapiens, UniProt P08908)
T1 sequence (P08908 whole entry): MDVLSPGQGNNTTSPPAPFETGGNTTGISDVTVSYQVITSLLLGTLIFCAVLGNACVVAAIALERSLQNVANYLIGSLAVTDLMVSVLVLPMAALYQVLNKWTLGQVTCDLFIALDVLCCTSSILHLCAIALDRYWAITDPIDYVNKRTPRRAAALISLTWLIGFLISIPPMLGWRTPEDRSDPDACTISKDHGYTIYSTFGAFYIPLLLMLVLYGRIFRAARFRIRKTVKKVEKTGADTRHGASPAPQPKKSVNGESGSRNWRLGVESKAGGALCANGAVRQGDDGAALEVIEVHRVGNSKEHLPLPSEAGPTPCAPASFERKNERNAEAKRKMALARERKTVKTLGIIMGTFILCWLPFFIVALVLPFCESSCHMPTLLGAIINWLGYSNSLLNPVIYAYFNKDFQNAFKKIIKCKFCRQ

With `O=C1c2ccccc2S(=O)(=O)N1CCCCN1CCN(c2ncccn2)CC1` [1,1-Dioxo-2-[4-(4-pyrimidin-2-yl-piperazin-1-yl)-butyl]-1,2-dihydro-1lambda*6*-benzo[d]isothiazol-3-one] the Ki was 0.13 µM.
